Structures are written as SMILES.

For one data set, the target named is T1, Rat CYP2C12 (Rattus norvegicus, UniProt P11510).
T1 sequence (P11510 1-490): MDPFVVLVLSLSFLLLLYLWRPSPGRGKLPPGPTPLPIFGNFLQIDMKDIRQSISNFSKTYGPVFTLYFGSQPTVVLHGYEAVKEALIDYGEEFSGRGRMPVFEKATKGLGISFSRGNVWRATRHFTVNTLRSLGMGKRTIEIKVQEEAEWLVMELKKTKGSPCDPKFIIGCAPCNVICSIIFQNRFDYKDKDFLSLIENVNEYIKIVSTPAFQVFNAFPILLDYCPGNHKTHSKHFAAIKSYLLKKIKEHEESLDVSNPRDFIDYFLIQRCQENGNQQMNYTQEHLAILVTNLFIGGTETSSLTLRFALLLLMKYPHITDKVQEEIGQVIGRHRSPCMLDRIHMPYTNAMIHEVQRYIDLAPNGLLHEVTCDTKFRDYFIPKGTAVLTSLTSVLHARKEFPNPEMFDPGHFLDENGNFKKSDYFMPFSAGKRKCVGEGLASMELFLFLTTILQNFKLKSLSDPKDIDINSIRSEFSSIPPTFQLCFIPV
Description: Turnover of fluorometric substrates by rat CYP2C12. To be noted: substrate uM: Ia 2, AMMC 20, CEC 40, MFC 50, BFC 50, BQ 40, BzRes 50; 30 min; enzyme 50 nM.

The target of the next data set is human CYP3A4 (Homo sapiens, UniProt P08684). Description: Enzyme kinetics of substrate turnover by cDNA-expressed CYP3A4. The note with it: for Vmax: CYP3A4. Details: purchased GENTEST Corporation P202; host or cells: baculovirus/insect cells (microsomes, SUPERSOMES). The class given is biochemical. How it is done:
The evaluation of compounds of Formula I were performed by measuring the kinetics of turnover using cDNA-expressed cytochromes P450 CYP3A4 and CYP2C8. Vmax and Km values are important for the optimization of the assay conditions and for setting the parameters for inhibition experiments.
Example Compound Ia. […] Final incubation volume was 0.2 ml. […] The activity was quantitated by comparing to a standard curve of fluorescein. Apparent Km and Vmax values were calculated by non-linear regression using SigmaPlot software.

Another data set concerns the target Rat CYP2E1 (Rattus norvegicus, UniProt P05182). Description: Turnover of fluorometric substrates by rat CYP2E1. To be noted: substrate uM: Ia 2, AMMC 20, CEC 40, MFC 50, BFC 50, BQ 40, BzRes 50; 30 min; enzyme 87 nM, lymphoblastoid microsomes.
Data set [1] deals with T2, panel of Human P450 enzymes (Homo sapiens, UniProt P04798).
T2 construct: purchased GENTEST Corporation; host or cells: baculovirus/insect cells (microsomes, SUPERSOMES)
T2 sequence (P04798 1-512): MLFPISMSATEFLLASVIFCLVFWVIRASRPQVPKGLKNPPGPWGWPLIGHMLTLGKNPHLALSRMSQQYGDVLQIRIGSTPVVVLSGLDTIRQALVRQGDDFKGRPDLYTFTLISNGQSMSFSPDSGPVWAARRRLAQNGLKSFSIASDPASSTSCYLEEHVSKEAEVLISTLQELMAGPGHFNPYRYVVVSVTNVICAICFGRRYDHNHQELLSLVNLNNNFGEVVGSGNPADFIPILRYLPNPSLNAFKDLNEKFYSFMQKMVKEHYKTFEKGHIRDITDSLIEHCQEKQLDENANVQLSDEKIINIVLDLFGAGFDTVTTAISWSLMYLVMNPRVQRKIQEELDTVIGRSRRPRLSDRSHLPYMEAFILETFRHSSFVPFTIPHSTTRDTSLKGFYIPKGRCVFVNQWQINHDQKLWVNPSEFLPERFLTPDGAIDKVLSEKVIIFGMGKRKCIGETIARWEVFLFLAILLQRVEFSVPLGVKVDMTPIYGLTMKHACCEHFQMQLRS
Kind of data set: Substrate specificity, dealkylation of Compounds Ia and Ib by a panel of human P450 enzymes. The class given is biochemical. To be noted: CYP1A1. The procedure:
(§1) The specificity of several cytochrome P450 enzymes for the dealkylation of Compound Ia (FIG. 1) and Compound Ib (FIG. 2) was examined.
(§2) Example Compounds Ia and Ib. […] Final incubation volume was 0.2 ml.

Data set [2] has as its target T3, panel of Human P450 enzymes (Homo sapiens, UniProt P10632).
T3 construct: purchased GENTEST Corporation; host or cells: baculovirus/insect cells (microsomes, SUPERSOMES)
T3 sequence (P10632 1-490): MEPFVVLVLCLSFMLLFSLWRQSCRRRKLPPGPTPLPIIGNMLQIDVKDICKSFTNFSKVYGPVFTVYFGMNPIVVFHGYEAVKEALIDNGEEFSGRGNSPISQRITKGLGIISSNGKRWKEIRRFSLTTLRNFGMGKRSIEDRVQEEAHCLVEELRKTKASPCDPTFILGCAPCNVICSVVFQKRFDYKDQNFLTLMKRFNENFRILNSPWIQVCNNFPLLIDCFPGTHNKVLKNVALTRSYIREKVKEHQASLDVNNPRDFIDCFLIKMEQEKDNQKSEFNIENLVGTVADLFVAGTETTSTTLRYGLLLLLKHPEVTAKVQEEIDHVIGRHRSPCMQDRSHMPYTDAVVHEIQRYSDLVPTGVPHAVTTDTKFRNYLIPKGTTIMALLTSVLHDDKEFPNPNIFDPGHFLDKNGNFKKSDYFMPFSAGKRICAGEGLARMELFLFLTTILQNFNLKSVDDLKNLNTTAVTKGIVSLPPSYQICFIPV
The description is as above. To be noted: CYP2C8. The class given is biochemical. The procedure:
as §1, §2

Data set [3] concerns panel of Human P450 enzymes. The data set is described as above. It counts as biochemical. To be noted: CYP2C9*1, CYP2C19, members of the CYP3A family. The procedure:
as §1, §2

human CYP3A4, sequence (P08684 whole entry): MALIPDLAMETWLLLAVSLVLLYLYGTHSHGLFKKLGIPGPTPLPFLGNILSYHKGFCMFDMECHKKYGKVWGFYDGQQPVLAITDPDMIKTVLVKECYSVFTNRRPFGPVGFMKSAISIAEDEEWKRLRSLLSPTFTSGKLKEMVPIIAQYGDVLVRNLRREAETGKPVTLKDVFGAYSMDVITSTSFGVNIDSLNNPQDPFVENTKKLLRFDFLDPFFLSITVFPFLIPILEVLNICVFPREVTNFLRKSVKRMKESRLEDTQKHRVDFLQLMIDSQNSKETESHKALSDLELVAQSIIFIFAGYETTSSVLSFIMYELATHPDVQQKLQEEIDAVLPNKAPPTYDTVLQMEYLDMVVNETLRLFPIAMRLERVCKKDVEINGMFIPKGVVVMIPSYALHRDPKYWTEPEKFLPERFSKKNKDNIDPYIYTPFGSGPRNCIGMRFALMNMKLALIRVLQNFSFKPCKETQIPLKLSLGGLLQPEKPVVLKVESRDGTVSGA
Rat CYP2E1, sequence (P05182 whole entry): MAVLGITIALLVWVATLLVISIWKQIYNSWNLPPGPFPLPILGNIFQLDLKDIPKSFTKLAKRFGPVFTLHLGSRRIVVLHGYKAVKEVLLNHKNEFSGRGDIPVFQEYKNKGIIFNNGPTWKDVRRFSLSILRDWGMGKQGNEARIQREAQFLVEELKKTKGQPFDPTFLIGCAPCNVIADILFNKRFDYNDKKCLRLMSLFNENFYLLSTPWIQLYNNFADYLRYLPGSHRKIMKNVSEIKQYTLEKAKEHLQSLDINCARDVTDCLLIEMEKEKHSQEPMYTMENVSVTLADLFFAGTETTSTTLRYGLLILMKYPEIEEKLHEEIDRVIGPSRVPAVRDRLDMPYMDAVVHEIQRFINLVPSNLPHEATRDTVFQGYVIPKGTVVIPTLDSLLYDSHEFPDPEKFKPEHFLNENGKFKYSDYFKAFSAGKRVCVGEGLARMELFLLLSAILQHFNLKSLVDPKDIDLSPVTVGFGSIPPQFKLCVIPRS

`c1ccc(COc2ccc3cccnc3c2)cc1` [BQ, 7-Benzyloxyquinoline]: the “Turnover Numbers, CYP2C12” value at Rat CYP2C12 is on record as 1.5 pmol product/min/pmol enzyme.

As a reminder, the Km is the substrate concentration at which the rate is half of its maximum. On to `O=c1ccc2nc3ccc(OCc4ccccc4)cc3oc-2c1` [BzRes, 7-benzyloxyresorufin], for which the Vmax at human CYP3A4 turned out to be 2.3 ± 0.2. On human CYP3A4 (CYP3A4, apparent Km), the Km turned out to be 30 ± 7 µM.

Consider `CCOc1ccc2cc(C#N)c(=O)oc2c1` [CEC, 7-Ethoxy-3-cyanocoumarin], for which the “Turnover Numbers, CYP2E1” value at Rat CYP2E1 was 0.10 pmol product/min/pmol enzyme.

In the case of `O=C(OCc1ccccc1)c1ccccc1-c1c2ccc(=O)cc-2oc2cc(OCc3ccccc3)ccc12` [Compound Ia, O-Benzylfluorescein Benzyl Ester], the dealkylation activity entry in data set [1] was “highest activity”; in data set [2] it was “substantial enzyme activity”; in data set [3], “catalyzed the dealkylation”. Also, the Vmax at human CYP3A4 is 22 ± 0.98.

`COc1ccc2c(C(F)(F)F)cc(=O)oc2c1` [MFC, 7-Methoxy-4-trifluoromethylcoumarin]: the “Turnover Numbers, CYP2E1” value on Rat CYP2E1 is given as 2.11 pmol product/min/pmol enzyme. In addition, the “Turnover Numbers, CYP2C12” value on Rat CYP2C12 is on record as 0.24 pmol product/min/pmol enzyme.

Values taken from patent publication US6420131B1, “Use of fluorescein aryl ethers in high throughput cytochrome P450 inhibition assays” (Gentest Corporation, priority 1999, dated 2002).
